Test results published in article PMC6084503, “Pyrrolo[3,2-c]pyridine derivatives with potential inhibitory effect against FMS kinase: in vitro biological studies” (Journal of Enzyme Inhibition and Medicinal Chemistry, 2018).
Where two headings read alike, the source gives them in different places.

Tests used:
[1] = target: T1, FMS kinase (Homo sapiens, UniProt P07333); assay: Kinase HotSpot cell-free enzyme assay, FMS kinase; assay type: biochemical; conditions: single-dose concentration of 1 μM
T1 construct: purchased Reaction Biology Corp

[2] = test system: bone marrow-derived macrophages (BMDM); assay: BMDM assay, CSF-1-induced BMDM growth (Alamar Blue); assay type: cell-based, C57BL6 murine; conditions: 5 days, triplicate assay, mean ± SEM, 10-dose from 1 µM, read-out: IC50 against bone marrow-derived macrophages (BMDM)
Procedure: The macrophages were isolated from C57BL6 murine bone marrow using Miltenyi Biotec MACS beads (CD11b). The macrophages (30,000 cells/well) were cultured in RPMI 1640 medium containing 10% foetal bovine serum, 2-mercaptoethanol ([…]), and the test compound for 1 h at 37 °C in the presence of 5% CO2. CSF-1 (20 ng/mL) was then added and the system was incubated for 5 days. Each compound was tested in a 10-dose testing mode, threefold serial dilution starting with 1 µM concentration. The inhibitory effects of the tested compounds against CSF-1-induced BMDM growth were determined using Alamar Blue^TM (Serotec).
FMS over-expression contributes to inflammatory disorders as explained in the Introduction section. So compounds 1r and KIST101029 were tested for their ability to inhibit CSF-1-induced BMDM growth. […] So, the compound 1r can be a promising candidate for future development of anti-arthritic drugs.
Each compound was tested in a 10-dose testing mode, threefold serial dilution starting with 1 µM concentration.

[3] = test system: OVCAR-5 ovarian cancer cell line; assay: NCI antiproliferative screening, 5-dose; assay type: cell-based; conditions: for IC50: concentration producing 50% inhibition, mean of duplicate experiments; for TGI: concentration producing 100% inhibition
Procedure: (§1) Compounds 1r and KIST101029 were tested at the National Cancer Institute (NCI, Bethesda, MD) following their standard protocol [https://dtp.cancer.gov/discovery_development/nci-60/methodology.htm].
(§2) Due to over-expression of FMS kinase in certain types of tumours such as ovarian, prostate, and breast[5–7] cancers, we decided to test the antiproliferative activity of compound 1r against a panel of six ovarian, two prostate, and five breast cancer cell lines. It was also tested against HS 27 fibroblasts in order to investigate the selectivity indexes. The results were compared with those of KIST101029 as a reference standard.

[4] = test system: IGROV1 ovarian cancer cell line; assay: NCI antiproliferative screening, 5-dose; assay type: cell-based; conditions: for IC50: mean of duplicate experiments; for TGI: concentration producing 100% inhibition
Procedure: as §1, §2

[5] = test system: DU-145 prostate cancer cell line; assay: NCI antiproliferative screening, 5-dose; assay type: cell-based; conditions: for IC50: concentration producing 50% inhibition, mean of duplicate experiments; for TGI: concentration producing 100% inhibition
Procedure: as §1, §2

[6] = test system: T-47D breast cancer cell line; assay: NCI antiproliferative screening, 5-dose; assay type: cell-based; conditions: for IC50: concentration producing 50% inhibition, mean of duplicate experiments; for TGI: concentration producing 100% inhibition
Procedure: as §1, §2

[7] = test system: OVCAR-4 ovarian cancer cell line; assay: NCI antiproliferative screening, 5-dose; assay type: cell-based; conditions: for IC50: concentration producing 50% inhibition, mean of duplicate experiments; for TGI: concentration producing 100% inhibition
Procedure: as §1, §2

[8] = test system: MDA-MB-231/ATCC breast cancer cell line; assay: NCI antiproliferative screening, 5-dose; assay type: cell-based; conditions: for IC50: concentration producing 50% inhibition, mean of duplicate experiments; for TGI: concentration producing 100% inhibition
Procedure: as §1, §2

[9] = test system: PC-3 prostate cancer cell line; assay: NCI antiproliferative screening, 5-dose; assay type: cell-based; conditions: for IC50: concentration producing 50% inhibition, mean of duplicate experiments; for TGI: concentration producing 100% inhibition
Procedure: as §1, §2

[10] = test system: MCF7 breast cancer cell line; assay: NCI antiproliferative screening, 5-dose; assay type: cell-based; conditions: for IC50: concentration producing 50% inhibition, mean of duplicate experiments; for TGI: concentration producing 100% inhibition
Procedure: as §1, §2

[11] = test system: MDA-MB-468 breast cancer cell line; assay: NCI antiproliferative screening, 5-dose; assay type: cell-based; conditions: for IC50: concentration producing 50% inhibition, mean of duplicate experiments; for TGI: concentration producing 100% inhibition
Procedure: as §1, §2

[12] = test system: HS 578T breast cancer cell line; assay: NCI antiproliferative screening, 5-dose; assay type: cell-based; conditions: for IC50: concentration producing 50% inhibition, mean of duplicate experiments; for TGI: concentration producing 100% inhibition
Procedure: as §1, §2

[13] = test system: OVCAR-8 ovarian cancer cell line; assay: NCI antiproliferative screening, 5-dose; assay type: cell-based; conditions: for IC50: concentration producing 50% inhibition, mean of duplicate experiments; for TGI: concentration producing 100% inhibition
Procedure: as §1, §2

[14] = test system: OVCAR-3 ovarian cancer cell line; assay: NCI antiproliferative screening, 5-dose; assay type: cell-based; conditions: for IC50: concentration producing 50% inhibition, mean of duplicate experiments; for TGI: concentration producing 100% inhibition
Procedure: as §1, §2

[15] = test system: NCI/ADR-RES ovarian cancer cell line; assay: NCI antiproliferative screening, 5-dose; assay type: cell-based; conditions: for IC50: concentration producing 50% inhibition, mean of duplicate experiments; for TGI: concentration producing 100% inhibition
Procedure: as §1, §2

[16] = test system: panel of 40 kinases including FMS; assay: Kinase HotSpot 40-kinase panel, summary over the other kinases; assay type: biochemical; conditions: 1 µM; kinases other than FMS, FLT3 (D835Y) and c-MET
Procedure: (§3) Reaction Biology Corp. Kinase HotSpot^SM service [http://www.reactionbiology.com] was utilised for screening of the target compounds as per the protocol reported in the literature.
Compound 1r was tested against a panel of 40 kinases including FMS. […] Its inhibition percentages against FLT3 (D835Y) and c-MET kinases were 42% and 40%, respectively. So its IC50 values against both of them will be in micromolar scale. […] The inhibition percentages exerted by compound 1r against the other 37 tested kinases were less than 28%.

[17] = target: T1, FMS kinase; assay: Kinase HotSpot cell-free enzyme assay, FMS kinase; assay type: biochemical
Procedure: as §3
Compounds 1a–r were tested in a 10-dose testing mode starting with 81 µM, threefold serial dilutions, against FMS kinase in a cell-free enzyme assay. […] This can be due to occupancy of a hydrophobic pocket with that additional benzoyl moiety and/or formation of additional hydrogen bond by the carbonyl oxygen.

[18] = test system: panel of six ovarian, two prostate, and five breast cancer cell lines; assay: NCI antiproliferative screening, whole panel; assay type: cell-based; conditions: read-out: IC50 values, range over the cancer cell line panel
Procedure: as §1, §2

T1 sequence (P07333 20-972): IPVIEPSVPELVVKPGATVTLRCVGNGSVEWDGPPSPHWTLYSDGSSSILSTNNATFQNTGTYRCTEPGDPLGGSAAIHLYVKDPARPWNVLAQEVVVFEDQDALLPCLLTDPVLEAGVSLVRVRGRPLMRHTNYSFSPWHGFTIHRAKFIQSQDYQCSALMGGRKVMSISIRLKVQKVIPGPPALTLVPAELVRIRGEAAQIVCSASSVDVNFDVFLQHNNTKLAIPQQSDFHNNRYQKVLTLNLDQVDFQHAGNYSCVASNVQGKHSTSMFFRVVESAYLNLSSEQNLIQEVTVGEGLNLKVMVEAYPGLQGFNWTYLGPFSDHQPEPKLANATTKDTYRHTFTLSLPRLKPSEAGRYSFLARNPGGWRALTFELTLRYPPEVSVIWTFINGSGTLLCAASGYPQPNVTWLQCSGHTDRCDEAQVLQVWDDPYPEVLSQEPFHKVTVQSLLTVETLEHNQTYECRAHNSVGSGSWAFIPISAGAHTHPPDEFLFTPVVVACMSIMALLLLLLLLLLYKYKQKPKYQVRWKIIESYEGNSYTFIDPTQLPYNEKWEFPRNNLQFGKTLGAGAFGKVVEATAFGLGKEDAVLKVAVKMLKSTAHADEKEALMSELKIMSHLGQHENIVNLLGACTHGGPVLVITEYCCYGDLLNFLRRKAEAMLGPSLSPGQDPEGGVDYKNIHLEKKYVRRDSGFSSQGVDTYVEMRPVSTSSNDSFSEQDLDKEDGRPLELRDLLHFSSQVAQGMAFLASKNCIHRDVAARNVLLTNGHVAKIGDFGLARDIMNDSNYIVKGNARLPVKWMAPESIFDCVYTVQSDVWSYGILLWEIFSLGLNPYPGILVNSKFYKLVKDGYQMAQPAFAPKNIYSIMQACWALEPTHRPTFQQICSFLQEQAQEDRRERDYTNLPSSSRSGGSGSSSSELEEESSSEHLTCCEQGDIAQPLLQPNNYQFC

`O=C(Nc1cccc(-n2ccc3c(NC(=O)c4ccccc4)nccc32)c1)c1ccc(N2CCOCC2)c(C(F)(F)F)c1` [KIST101029, reference compound] gave an inhibition at 1 µM [1] of 90%, an IC50 ([2]; Mus musculus, 120 h) of 195 ± 6 nM and an IC50 ([3]; Homo sapiens) of 200 nM. For the same compound, the TGI [3] was >100 µM, the IC50 ([4]; Homo sapiens, IGROV-1, concentration producing 50% inhibition) was 60 nM and the TGI [4] was 56.9 µM. For the same compound, the IC50 ([5]; Homo sapiens) was 40 nM, the TGI [5] was 0.10 µM and the IC50 ([6]; Homo sapiens, T47D) was 80 nM. For the same compound, the TGI [6] was 7.46 µM, the IC50 ([7]; Homo sapiens) was 240 nM and the TGI [7] was 50.0 µM. For the same compound, the IC50 ([8]; Homo sapiens) was 160 nM, the TGI [8] was 3.42 µM and the IC50 [9] was 60 nM. The TGI [9] was >100 µM, the IC50 ([10]; Homo sapiens) was 40 nM and the TGI [10] was 54.0 µM. The IC50 ([11]; Homo sapiens) was 30 nM, the TGI [11] was 0.10 µM and the IC50 ([12]; Homo sapiens) was 990 nM. The TGI [12] was 97.2 µM, the IC50 ([13]; Homo sapiens) was 60 nM and the TGI [13] was >100 µM. The IC50 ([14]; Homo sapiens) was 20 nM, the TGI [14] was 0.05 µM and the IC50 ([15]; Homo sapiens) was 40 nM. For the same compound, the TGI [15] was 26.4 µM.

`Nc1nccc2c1ccn2-c1cccc(NC(=O)c2ccc(N3CCOCC3)c(C(F)(F)F)c2)c1` [Compound 1r] was tested, and the “Inhibition percentages against the other 37 tested kinases” value [16] was “less than 28%”, the “% Inhibition” value [1] was 81% and the IC50 [2] was 84 ± 3 nM. The IC50 [3] was 1380 nM, the TGI [3] was >50 µM and the IC50 ([4]; concentration producing 50% inhibition) was 700 nM. For the same compound, the TGI [4] was 43.3 µM, the IC50 [5] was 1300 nM and the TGI [5] was 4.67 µM. For the same compound, the IC50 [6] was 1780 nM, the TGI [6] was 27.5 µM and the IC50 [7] was 1080 nM. The TGI [7] was 26.0 µM, the IC50 [8] was 840 nM and the TGI [8] was 2.32 µM. It also gave an IC50 [9] of 380 nM, a TGI [9] of 10.40 µM and an IC50 [10] of 150 nM. The TGI [10] was 6.86 µM, the IC50 [11] was 300 nM and the TGI [11] was 3.14 µM. It also gave an IC50 [12] of 340 nM, a TGI [12] of 2.43 µM and an IC50 [13] of 1260 nM. For the same compound, the TGI [13] was 9.96 µM, the IC50 [14] was 240 nM and the TGI [14] was 1.47 µM. For the same compound, the IC50 [15] was 340 nM, the TGI [15] was >50 µM and the IC50 ([17]; 10-dose duplicate assay, mean ± SEM, starting with 81 µM, threefold serial dilution, read-out: IC50 against FMS kinase) was 30 ± 20 nM. For the same compound, the “Potency against FMS kinase relative to KIST101029” value ([17]; ratio of IC50 values, more potent than lead compound KIST101029) was 3.2 times and the IC50 [18] was 150 to 1780 nM.
